Results as given in the supplement of paper PMC11061612.

Key:
[1] = tested on: TE-10 (Esophageal Squamous Cell Carcinoma); assay: Bliss excess, mean over the matrix (fraction); higher = more synergy
Procedure, shortened: (§1)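 Cell lines in DMEM/F12 or RPMI with 10% FBS were plated in 1536-well plates, held 24 hours at 37°C, 5% CO2, then given two-drug dose matrices for 72 hours (DMSO typically 0.2%). Viability was read by CellTiter-Glo 2.0 luminescence and scaled as inhibition from 0 (vehicle wells) to 1 (blank wells). Combination Emax is the second-highest inhibition in the matrix; Bliss excess is observed combination effect minus expected EA + EB − EA·EB, EA and EB being single-agent effects.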

[2] = tested on: DU-4475 (Breast Carcinoma); assay: as above
Procedure, shortened: as §1

[3] = tested on: HCC1395 (Breast Carcinoma); assay: as above
Procedure, shortened: as §1

[4] = tested on: KYSE-220 (Esophageal Squamous Cell Carcinoma); assay: as above
Procedure, shortened: as §1

[5] = tested on: EB2 (Burkitt's Lymphoma); assay: as above
Procedure, shortened: as §1

[6] = tested on: MHH-ES-1 (Ewing's Sarcoma); assay: as above
Procedure, shortened: as §1

[7] = tested on: G-402 (Other Solid Carcinomas); assay: as above
Procedure, shortened: as §1

[8] = tested on: WM1552C (Melanoma); assay: as above
Procedure, shortened: as §1

[9] = tested on: TE-10 (Esophageal Squamous Cell Carcinoma); assay: combination Emax (second highest fraction inhibited in the dose matrix, 72 h); higher = more inhibition; extreme values may be limits of the assay
Procedure, shortened: as §1

[10] = tested on: CA46 (Burkitt's Lymphoma); assay: Bliss excess, mean over the matrix (fraction); higher = more synergy
Procedure, shortened: as §1

[11] = tested on: NCI-H841 (Small Cell Lung Carcinoma); assay: as above
Procedure, shortened: as §1

[12] = tested on: HCC1428 (Breast Carcinoma); assay: as above
Procedure, shortened: as §1

[13] = tested on: MKN1 (Gastric Carcinoma); assay: as above
Procedure, shortened: as §1

[14] = tested on: CAL-27 (Oral Cavity Carcinoma); assay: as above
Procedure, shortened: as §1

[15] = tested on: NCI-H841 (Small Cell Lung Carcinoma); assay: combination Emax (second highest fraction inhibited in the dose matrix, 72 h); higher = more inhibition; extreme values may be limits of the assay
Procedure, shortened: as §1

[16] = tested on: MKN1 (Gastric Carcinoma); assay: as above
Procedure, shortened: as §1
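Wherever Bliss excess, mean over the matrix is given: after 72 h of two-drug dosing.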

Row | SMILES | Bliss excess [1] | Bliss excess [2] | Bliss excess [3] | Bliss excess [4] | Bliss excess [5] | Bliss excess [6] | Bliss excess [7] | Bliss excess [8] | combination Emax [9] | Bliss excess [10] | Bliss excess [11] | Bliss excess [12] | Bliss excess [13] | Bliss excess [14] | combination Emax [15] | combination Emax [16]
1 | CCc1c2c(nc3ccc(O)cc13)-c1cc3c(c(=O)n1C2)COC(=O)[C@]3(O)CC [SN-38] + O=C(c1cc(Cc2n[nH]c(=O)c3ccccc23)ccc1F)N1CCN(C(=O)C2CC2)CC1 [Olaparib] (first compound max 0.3 µM, 7x7, partner max 10 µM) | 0.0939 | -0.0271 | 0.0315 | 0.0078 | 0.0348 | 0.0533 | 0.0614 | 0.0586 | 0.752 |  |  |  |  |  |  | 
2 | COc1nnc2ccc(N3CCC(c4ccc(OCCN5CCN(C)C(=O)[C@H]5C)cc4)CC3)nn12 [AZD5153] + C[C@@H]1COCCN1C2=NC(=NC(=C2)C3(CC3)[S@](=N)(=O)C)C4=C5C=CNC5=NC=C4 [AZD6738] (first compound max 1 µM, 7x7, partner max 10 µM) |  | 0.0294 | -0.0241 | 0.0019 | -0.0996 | 0.0074 | 0.0025 | -0.0783 |  | -0.0051 | 0.0202 | 0.0209 | 0.0483 | 0.0095 | 0.73 | 0.936
3 | COc1nnc2ccc(N3CCC(c4ccc(OCCN5CCN(C)C(=O)[C@H]5C)cc4)CC3)nn12 [AZD5153] + Cn1cnc2c(F)c(Nc3ccc(Br)cc3Cl)c(C(=O)NOCCO)cc21 [Selumetinib] (first compound max 1 µM, 7x7, partner max 10 µM) |  | 0.0219 | -0.024 | 0.123 | -0.0216 | -0.0114 | -0.0421 | -0.063 |  | -0.0282 | -0.0121 | 0.0137 | -0.0081 | -0.0093 | 0.328 | 0.619
4 | CC(=O)c1c(C)c2cnc(Nc3ccc(N4CCNCC4)cn3)nc2n(C2CCCC2)c1=O [Palbociclib] + Cn1cnc2c(F)c(Nc3ccc(Br)cc3Cl)c(C(=O)NOCCO)cc21 [Selumetinib] (first compound max 10 µM, 7x7, partner max 10 µM) |  | -0.0446 | -0.0529 | 0.0235 | -0.018 | -0.0061 | 0.0399 | -0.0078 |  | -0.0504 | -0.0352 | -0.0235 | -0.0001 | -0.0132 | 0.16 | 0.332
5 | CS(=O)(=O)CCNCc1ccc(-c2ccc3ncnc(Nc4ccc(OCc5cccc(F)c5)c(Cl)c4)c3c2)o1 [Lapatinib] + C[C@@H](Oc1cc(-c2cnn(C3CCNCC3)c2)cnc1N)c1c(Cl)ccc(F)c1Cl [Crizotinib] (first compound max 10 µM, 7x7, partner max 10 µM) |  | -0.0077 | -0.0724 | -0.0397 | -0.0705 | -0.0333 | -0.0517 | -0.0534 |  | 0.0216 | -0.0378 | -0.043 | 0.0038 | -0.0589 | 0.356 | 0.922
6 | COc1nnc2ccc(N3CCC(c4ccc(OCCN5CCN(C)C(=O)[C@H]5C)cc4)CC3)nn12 [AZD5153] + CC1(C)CCC(CN2CCN(c3ccc(C(=O)NS(=O)(=O)c4ccc(NCC5CCOCC5)c([N+](=O)[O-])c4)c(Oc4cnc5[nH]ccc5c4)c3)CC2)=C(c2ccc(Cl)cc2)C1 [Venetoclax] (first compound max 1 µM, 7x7, partner max 1 µM) |  | 0.0181 | -0.0241 | -0.015 | -0.0677 | -0.046 | -0.0478 | -0.0691 |  | -0.052 | -0.0317 | -0.0592 | -0.0062 | -0.0394 | 0.317 | 0.57
7 | NC1(C(=O)N[C@@H](CCO)c2ccc(Cl)cc2)CCN(c2ncnc3[nH]ccc23)CC1 [Capivasertib] + COc1nnc2ccc(N3CCC(c4ccc(OCCN5CCN(C)C(=O)[C@H]5C)cc4)CC3)nn12 [AZD5153] (first compound max 10 µM, 7x7, partner max 1 µM) |  | 0.02 | -0.0381 | -0.0248 | -0.0966 | 0.0467 | -0.02 | -0.0366 |  | -0.0183 | -0.0002 | -0.0596 | 0.0481 | -0.0366 | 0.405 | 0.782
8 | NC1(C(=O)N[C@@H](CCO)c2ccc(Cl)cc2)CCN(c2ncnc3[nH]ccc23)CC1 [Capivasertib] + C[C@@H]1COCCN1C2=NC(=NC(=C2)C3(CC3)[S@](=N)(=O)C)C4=C5C=CNC5=NC=C4 [AZD6738] (first compound max 10 µM, 7x7, partner max 10 µM) |  | 0.0226 | -0.0687 | -0.0523 | -0.0714 | -0.0259 | -0.017 | -0.062 |  | 0.0324 | -0.0622 | -0.0066 | -0.0639 | -0.0792 | 0.457 | 0.807
9 | COc1nnc2ccc(N3CCC(c4ccc(OCCN5CCN(C)C(=O)[C@H]5C)cc4)CC3)nn12 [AZD5153] + CCN(CCO)CCCOc1ccc2c(Nc3cc(CC(=O)Nc4cccc(F)c4)[nH]n3)ncnc2c1 [AZD2811] (first compound max 1 µM, 7x7, partner max 1 µM) |  | 0.0934 | -0.0005 | 0.0083 | -0.102 | -0.0345 | -0.0728 | -0.0615 |  | -0.0088 | 0.0001 | -0.0173 | -0.0033 | -0.127 | 0.428 | 0.807
